These results are taken from patent US20220054448A1, “NOVEL POLYMETH[…] FOR SKELETAL MUSCLE MODULATION, METHODS AND USES THEREOF” (SOCIETE DES PRODUITS NESTLE S.A., priority 2018, published 2022).

SMILES strings stand for the structures.

This assay deals with Muscle Stem Cells. Put plainly: In vivo muscle regeneration after intramuscular cardiotoxin injury. To be noted: mouse, oral gavage 100 mg/kg body weight once a day from one week before cardiotoxin injury; muscles harvested 5 days after injury; versus water control. As to the method: FIG. 5—In Vivo Muscle Regeneration: Measurement of Early Phase Expansion and Differentiation of Muscle Stem Cells
Early phase of expansion and subsequent phase of myogenic differentiation of Muscle Stem Cells were evaluated.
Data are expressed as number of cells per area of injured muscle.
The size of each newly formed myofiber has been measured based on the expression of the eMHC and laminin that allow to recognize and delineate these nascent myofibers. Results are shown as mean myofiber cross-sectional area (μm^2).
In order to reproduce the physiological process of muscle regeneration that occurs in adult skeletal muscles in response to injury or disease, we performed an intramuscular injection of cardiotoxin into mouse hindlimb muscles. One week prior to the induction of the muscle injury, mice were given by oral gavage compounds of the invention; either cirsimaritin or xanthomicrol at 100 mg/kg body weight and water was used as a control. […] Several myogenic markers were then measured. […]
In particular, this is shown be the early phase of expansion evaluated by counting the number of Pax7+ cells shown in FIG. 5A and the subsequent phase of myogenic differentiation of Muscle Stem Cells measured by counting the number of myogenin+ cells shown in FIG. 5B, respectively. Data were expressed as number of cells per arear of injured muscle. […]

On to `COc1cc2oc(-c3ccc(O)cc3)cc(=O)c2c(O)c1OC` [Cirsimaritin, 5,4′-Dihydroxy-6,7-dimethoxyflavone], for which the “in vivo muscle regeneration process (number of Pax7+ cells, number of myogenin+ cells, size of newly formed myofibers)” value is given as “promote the in vivo muscle regeneration process”.

Regarding `COc1c(OC)c(O)c2c(=O)cc(-c3ccc(O)cc3)oc2c1OC` [Xanthomicrol, 5,4′-Dihydroxy-6,7,8-trimethoxyflavone], the “in vivo muscle regeneration process (number of Pax7+ cells, number of myogenin+ cells, size of newly formed myofibers)” value was “promote the in vivo muscle regeneration process”.
